Consider 17 molecules from patent US20050215548A1 (Cyclacel Limited, priority 2002, published 2005).

Where two headings read alike, the source gives them in different places.

The subject of one data set is H1299. Kind of data set: 72-h MTT cytotoxicity assay, H1299. The data set is classed as cell-based. The settings on record: Homo sapiens, NCI-H1299; 72-h MTT; Table 1; read-out: IC50 Anti-proliferative effect on cell line H 1299. Here is the method:
(§1) The fluorescence polarisation competitive HDM2 binding assay described in Example 3 was used. Furthermore, the anti-proliferative potency of the compounds against three human tumour cell lines with different genetic make-up was also determined. […] The cell lines used were as follows: AGS, gastric adenocarcinoma, wild-type p53; H1299, large cell lung carcinoma, p53 null, low HDM2; SJSA-1, primitive multipotential bone sarcoma, wild-type p53, overexpressed HDM2.
(§2) Representative bisarylsulfonamide compounds were tested on a panel of transformed and non-transformed human cell lines, using a standard 72-h MTT cytotoxicity assay [Haselsberger K et al, ibid].
In general terms: Tetrazolium dyes change colour on reduction, which living cells bring about.

Data set [1] addresses T1, HDM2 (Homo sapiens, UniProt Q00987).
T1 construct: Recombinant HDM2 (1.5 μg per well) in TBS-BSA buffer
Kind of data set: Fluorescence polarisation competitive HDM2 binding assay. An outline of the steps: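 Recombinant HDM2 (1.5 μg/well) was preincubated 5 min at room temperature with serially diluted compound in 50 mM Tris pH 7.4, 150 mM NaCl, 0.1% BSA, 5% DMSO final. Fluorescein-labelled p53 peptide (0.2 μM) was then added for 45 min. Polarisation was read at 485/520 nm and IC50 derived from dose-response curves.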
(Fluorescence polarisation rises when a labelled molecule tumbles more slowly, as on binding a larger partner.)

The subject of data set [2] is E2F transcription factors. Kind of data set: E2F reporter gene assay (A549-derived luciferase reporter cell line). Format: cell-based. To be noted: Homo sapiens. Here is the method:
A similar system to the p53 reporter assay described above was used, with the exception that it was designed to be responsive to E2F transcription factors rather than p53. An A549-derived cell line stably transfected with an E2F response element and a luciferase reporter gene was created. The genetic expression cassette construct used was from Clontech (Mercury™ Cell Cycle Profiling System). Assays were carried out as described above.
Representative bisarylsulfonamides were tested in the E2F gene reporter assay described in Example 6.
On the technique in general: In a reporter assay the amount or activity of a reporter protein is the signal.

For another data set, the system named is SJSA-1. Kind of data set: 72-h MTT cytotoxicity assay, SJSA-1. Format: cell-based. The settings on record: Homo sapiens, SJSA-1; 72-h MTT; Table 1; read-out: IC50 Anti-proliferative effect on cell line SJSA-1. Here is the method: as §1, §2
Another data set relates to AGS. The experiment in a line: 72-h MTT cytotoxicity assay, AGS. Format: cell-based. To be noted: Homo sapiens, 72-h MTT, Table 1, read-out: IC50 Anti-proliferative effect on cell line AGS. Here is the method:
as §1, §2

A further data set has as its system p53. Kind of data set: p53 reporter gene assay (U2OS-derived luciferase reporter cell line). The settings on record: for Fold induction of luciferase activity: compared to basal luciferase activity, 16-h time point, at concentration of maximal induction; for Concentration (test compound concentration at which the p53 induction was maximal): p53 reporter, U2OS-derived cell line.

For data set [3], the system named is key proteins in the HDM2 pathway. The experiment in a line: SDS-PAGE and immunoblotting of key proteins in the HDM2 pathway. Format: cell-based, human. To be noted: negative control: MCF7, 13.5 μM; 68/69: MCF7 and H1299 at five times IC50 of 69; 49: AGS, SJSA1, H1299. From the text: Equal amounts of cell lysate were separated by SDS-PAGE and analysed by immunoblotting using the indicated antibodies. An estimation of the extent of cell rounding is indicated above each lane. […] (B) The effect of compound 2 on the levels of the cell cycle proteins in AGS cells (wild-type 53). […] Equal amounts of cell lysate were separated by SDS-PAGE and analysed by immunoblotting using the indicated antibodies. An estimation of the extent of cell rounding is indicated above each lane. (C) The effect of negative control compound (refer Example 10), compound 2, cisplatin, and anisomycin on the levels of key proteins in MCF7 cells. […] Cisplatinum and anisomycin (a transcription inhibitor) treatments were with 50 μM or 37 μM, respectively. Cells were harvested at various time points; afterwards lysates were prepared and separated by SDS-PAGE and analysed by immunoblotting. The proteins detected are indicated. The extent of rounded or floating cells and the percentage viable cells were assessed. […] Equal amounts of cell lysate were separated by SDS-PAGE and analysed by immunoblotting using a range of antibodies. An estimation of the extent of cell rounding is indicated above each lane. […] SJSA1 cells were treated with 5 times [IC50] of compound 2 and collected at the indicated time points. Equal amounts of cell lysate were separated by SDS-PAGE and analysed by immunoblotting using a range of antibodies. An estimation of the extent of cell rounding is indicated above each lane.
Many types of cellular stress converge on the p53 pathway and induce its activity. […] The biological effect of bisarylsufonamides on cellular level was studies using representative compounds (mainly compound 2) and number of cell lines with different HDM2 and p53 status. These were overexpressing Hdm2 (SJSA1—osteosarcoma), wild type p53 and normal levels of HDM2 (AGS—gastric adenocarcinoma, MCF7—breast adenocarcinoma), or p53 null, low levels of HDM2 (H1299—large cell lung carcinoma).
Cells were lysed and equal amounts were analysed by SDS-polyacrylamide gel electrophoresis (SDS-PAGE) and immunoblotting.

Data set [4] deals with T1, HDM2. To be noted: literature, cited from earlier work; for affinity for HDM2 / inhibition of the p53/HDM2 complex: background.
The mark [5] stands for this setting: fluorescence polarisation format, Table 1, read-out: IC50 In vitro competitive HDM2 binding assay.
Where [6] appears, read: after 3-h treatment with test compounds, read-out: IC50 E2F reporter, Non-synchronised cells.
[7] abbreviates: after 3-h treatment, synchronisation with 0.3 mM mimosine for 24 h, followed by wash-out, read-out: IC50 E2F reporter, Synchronised cells.
[8] abbreviates: fluorescence polarisation assay, Table 3, read-out: In vitro competitive HDM2 binding assay IC50.

T1 sequence (Q00987 whole entry): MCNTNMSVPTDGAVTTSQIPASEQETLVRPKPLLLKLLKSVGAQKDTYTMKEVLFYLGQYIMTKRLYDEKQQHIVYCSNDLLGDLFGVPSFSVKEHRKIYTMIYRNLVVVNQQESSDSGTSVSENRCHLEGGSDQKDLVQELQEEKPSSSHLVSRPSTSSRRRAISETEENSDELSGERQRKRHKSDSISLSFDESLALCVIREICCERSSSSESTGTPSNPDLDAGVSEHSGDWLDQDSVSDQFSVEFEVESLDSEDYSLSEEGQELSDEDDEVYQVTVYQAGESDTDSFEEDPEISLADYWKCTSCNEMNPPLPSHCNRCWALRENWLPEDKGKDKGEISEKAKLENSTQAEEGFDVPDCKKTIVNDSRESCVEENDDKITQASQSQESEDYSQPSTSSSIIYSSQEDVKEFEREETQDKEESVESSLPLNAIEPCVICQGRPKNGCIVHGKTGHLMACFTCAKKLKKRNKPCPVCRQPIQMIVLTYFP
Description for p53: A dual assay assessing both cell viability and p53 response was employed. A U2OS-derived cell line stably transfected with a p53 response element and a luciferase reporter gene was created. […] After seeding of cells into 96-well tissue culture plates, treatment with test compounds, and incubation for the desired duration, the cell proliferation reagent WST-1 (Roche Molecular Biochemicals) was used to determine cell viability. The Bright-Glo™ Luciferase Assay System (Promega) was used to measure luciferase activity. The data from the cell viability assay was used to normalise data from the luciferase assay.

For `O=[N+]([O-])c1cc(S(=O)(=O)Nc2ccc(O)cc2)sc1Cl` [Compound 5, 5-Chloro-4-nitrothiophene-2-sulfonic acid (4-hydroxyphenyl)amide], the IC50 – broadly, the concentration at which inhibition is half-maximal – came to 8.7 ± 2.2 µM in the data set with H1299; 105 ± 26 µM on HDM2 [1] (setting [5]); 73.3 ± 33.4 µM in data set [2] (setting [6]); 72 ± 31 µM in data set [2] (setting [7]); 24 ± 2.1 µM in the data set with SJSA-1; 2.2 ± 0.6 µM with AGS.
In the case of `O=[N+]([O-])c1cc(S(=O)(=O)Nc2cc(Cl)cc(Cl)c2)sc1Cl` [Compound 39, 5-Chloro-4-nitrothiophene-2-sulfonic acid (3,5-dichlorophenyl)-amide], the IC50 with H1299 turned out to be 12.1 ± 4 µM; at HDM2 [1] (setting [8]), 46.1 ± 3.4 µM; at HDM2 [1] (setting [5]), 46.1 ± 3.4 µM; in data set [2] (setting [6]), 90 µM; in the data set with SJSA-1, 27.2 ± 0.4 µM; in the data set on AGS, 4.9 ± 1.6 µM. Further, in the data set on p53, the “Fold induction of luciferase activity” value was determined as 64 fold. For the same molecule, in the data set on p53, the “Concentration (test compound concentration at which the p53 induction was maximal)” value (from here on “Concentration”) was 15 µM.
Take `O=[N+]([O-])c1cc(S(=O)(=O)Nc2cc(F)cc(F)c2)sc1Cl` [Compound 40, 5-Chloro-4-nitrothiophene-2-sulfonic acid (3,5-difluorophenyl)-amide]: the half-maximal inhibitory concentration (IC50) is 10.6 ± 0.4 µM in the data set on H1299; 59.6 ± 10.9 µM on HDM2 [1] (setting [8]); 59.6 ± 10.5 µM at HDM2 [1] (setting [5]); 99.5 µM in data set [2] (setting [6]); 26.4 ± 0.2 µM in the data set with SJSA-1; 4 ± 0.3 µM with AGS. The “Fold induction of luciferase activity” value in the data set with p53 is on record as 68 fold. The “Concentration” value with p53 came to 13 µM.
Turning to `O=S(=O)(Nc1ccc(C(F)(F)F)cc1)c1cnc(Cl)c(Br)c1` [Compound 41, 5-Bromo-6-chloropyridine-3-sulfonic acid (4-trifluoromethylphenyl)amide], the IC50 in the data set with H1299 stood at 28 µM; on HDM2 [1] (setting [5]), 258 ± 12 µM; in data set [2] (setting [6]), 76.6 µM; in data set [2] (setting [7]), 84 µM; with SJSA-1, 53 ± 3 µM; in the data set with AGS, 31 ± 2 µM.
With `O=[N+]([O-])c1cc(S(=O)(=O)NCc2ccc(C(F)(F)F)cc2)sc1Cl` [Compound 46, 5-Chloro-4-nitrothiophene-2-sulfonic acid 4-trifluoromethylbenzylamide], the IC50 in the data set on H1299 is 3.4 ± 0.5 µM; at HDM2 [1] (setting [8]), 11.1 ± 1.7 µM; at HDM2 [1] (setting [5]) it was 11.1 ± 1.7 µM; in data set [2] (setting [6]), 25.5 ± 3.1 µM; in the data set with SJSA-1, 4.4 ± 1.1 µM; with AGS, 1.3 ± 0.5 µM. Moreover, the “Fold induction of luciferase activity” value with p53 is on record as 55 fold. The “Concentration” value with p53 turned out to be 6 µM.
For `O=[N+]([O-])c1cc(S(=O)(=O)NCCc2c[nH]c3ccccc23)sc1Cl` [Compound 48, 5-Chloro-4-nitrothiophene-2-sulfonic acid [2-(1H-indol-3-yl)-ethyl]amide], the IC50 with H1299 is 3.6 ± 0.9 µM; at HDM2 [1] (setting [8]), 25.3 ± 4.6 µM; at HDM2 [1] (setting [5]), 25.3 ± 4.6 µM; in data set [2] (setting [6]), 31.3 ± 2.6 µM; with SJSA-1, 3.1 ± 1 µM; with AGS, 2.6 ± 1.4 µM. Also, the “Fold induction of luciferase activity” value with p53 amounted to 43.5 fold. Besides, the “Concentration” value in the data set on p53 came out at 5.5 µM.
Consider `O=[N+]([O-])c1cc(S(=O)(=O)NCCc2c[nH]c3cc(Cl)ccc23)sc1Cl` [Compound 60, 5-Chloro-4-nitro-thiophene-2-sulfonic acid [2-(6-chloro-1H-indol-3-yl)-ethyl]-amide], for which the IC50 is 29 ± 6 µM on HDM2 [1] (setting [8]), 29 ± 6 µM at HDM2 [1] (setting [5]) and 29.2 ± 6.8 µM in data set [2] (setting [6]). In the data set with p53, the “Fold induction of luciferase activity” value stood at 48 fold. Moreover, the “Concentration” value in the data set on p53 stood at 7.5 µM.
`COc1ccc(NS(=O)(=O)c2cc([N+](=O)[O-])c(Cl)s2)cc1` [Compound 61, 5-Chloro-4-nitro-thiophene-2-sulfonic acid (4-methoxy-phenyl)-amide]: the IC50 with H1299 was determined as 2.7 ± 0.4 µM; on HDM2 [1] (setting [8]), 45 ± 14 µM; at HDM2 [1] (setting [5]), 45 ± 14 µM; in data set [2] (setting [6]), 34.6 ± 22.9 µM; in the data set on SJSA-1, 2.8 ± 0.2 µM; with AGS it was 1.8 ± 0.4 µM. Further, the “Fold induction of luciferase activity” value in the data set on p53 was 34 fold. Moreover, in the data set on p53, the “Concentration” value was found to be 4.8 µM.
As to `O=[N+]([O-])c1cc(S(=O)(=O)NCc2ccccc2)sc1Cl` [Compound 64, 5-Chloro-4-nitro-thiophene-2-sulfonic acid benzylamide], the concentration for half-maximal inhibition (IC50) was 6.3 ± 2.1 µM in the data set with H1299; 18 µM at HDM2 [1] (setting [5]); 44.6 ± 2.3 µM in data set [2] (setting [6]); 7.3 ± 1.7 µM in the data set on SJSA-1; 3.6 ± 0.2 µM in the data set with AGS.
In the case of `O=[N+]([O-])c1ccc(S(=O)(=O)Nc2ccc(Cl)cc2)s1` [Compound 68, 5-Nitro-thiophene-2-sulfonic acid (4-chloro-phenyl)-amide], the IC50 amounted to 431 µM on HDM2 [1] (text of Example 10, refer Table 1, read-out: competitive inhibition IC50) and 76 µM in the data set with AGS. For the same molecule, the “changes in protein levels and cell morphology” value in data set [3] is on record as “Little change in protein levels”.
For the molecule `O=[N+]([O-])c1cc(S(=O)(=O)Nc2nc3ccccc3[nH]2)ccc1Cl` [Compound 83, N-(1H-Benzoimidazol-2-yl)-4-chloro-3-nitro-benzenesulfonamide], the 50% inhibitory concentration (IC50) stood at 1.4 ± 0.2 µM with H1299; 119 ± 42.5 µM on HDM2 [1] (setting [8]); 119 ± 43 µM at HDM2 [1] (setting [5]); 29.4 ± 6 µM in data set [2] (setting [6]); 2.3 ± 0.9 µM in the data set with SJSA-1; 0.9 ± 0.1 µM in the data set with AGS. In the data set with p53, the “Fold induction of luciferase activity” value was 10 fold. In addition, in the data set with p53, the “Concentration” value came to 5 µM.
Consider `O=C(O)COc1ccc(C(=O)C=Cc2ccc(Cl)c(Cl)c2)cc1` [Compound B-1, {4-[3-(3,4-dichloro-phenyl)-acryloyl]-phenoxy}-acetic acid], for which the “affinity for HDM2 / inhibition of the p53/HDM2 complex” value at HDM2 [4] is listed as “high micromolar affinity”.
For `O=S(=O)(NCc1ccc(C(F)(F)F)cc1)c1cc(Br)c(Cl)s1` [negative control compound, 4-bromo-5-chloro-thiophene-2-sulfonic acid 4-trifluoromethyl-benzylamide, reference compound], on HDM2 [1], the “inhibition of the HDM2-p53 interaction in vitro” value is listed as “does not inhibit”. Also, the “changes in protein levels and cell morphology” value in data set [3] is “did not induce any notable changes in the protein levels tested or cell morphology”.
Consider FMDYWEGL, for which the “affinity for HDM2 / inhibition of the p53/HDM2 complex” value in the data set with HDM2 [4] is “micromolar affinity”.
Take MPRFMDYWEGLN: in the data set with HDM2 [4], the “affinity for HDM2 / inhibition of the p53/HDM2 complex” value was “sub-micromolar affinity”. Also, the “fold more potent than the corresponding wild-type p53-derived peptide” value with HDM2 [4] (versus 16QETFSDLWKLLF27) is listed as 28 fold.
With “TFSDLW (UniProt P04637 18-23, looked up, fragment) [p53(18-23)]”, the “affinity for HDM2 / inhibition of the p53/HDM2 complex” value with HDM2 [4] is “little affinity”.
As for chlorofusin, the “affinity for HDM2 / inhibition of the p53/HDM2 complex” value at HDM2 [4] is “micromolar inhibitor”.
